Assay results as given in patent US20240287071A1, “CLASS OF IMIDAZOLIDINOPYRIMIDONE COMPOUNDS AND USE THEREOF IN TREATMENT OF HSCLPP-MEDIATED DISEASES” (SICHUAN UNIVERSITY, priority 2021, published 2024).

Target: HsClpP (Homo sapiens, UniProt Q16740)
Experiment: HsClpP enzyme hydrolysis of short peptide substrate AC-WLA-AMC
Settings: promoting hydrolysis of short peptide substrate by HsClpP, relative to blank control
Method: This study evaluated the regulatory activity of the compounds on HsClpP by examining the hydrolysis effects of HsClpP protein on the AC-WLA-AMC substrate . […] The small molecules and the HsClpP protein solution were added to a flat-bottomed black 96-well plate, with three replicate wells for each group. […] DMSO was used as a negative control instead of small molecules. The multiple of readings at different concentrations against the readings of DMSO group was recorded as an index for evaluation of hydrolysis activity. . . . GraphPad Prism was used to plot the obtained multiple values and calculate the EC50 values.

Sequence of HsClpP (Q16740 57-277): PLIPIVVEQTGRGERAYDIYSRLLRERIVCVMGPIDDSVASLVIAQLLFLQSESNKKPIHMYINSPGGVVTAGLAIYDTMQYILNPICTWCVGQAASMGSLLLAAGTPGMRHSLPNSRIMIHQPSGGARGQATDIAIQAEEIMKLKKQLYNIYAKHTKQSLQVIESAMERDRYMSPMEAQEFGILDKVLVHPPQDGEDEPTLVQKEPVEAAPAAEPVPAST

Row | SMILES | Regulatory efficacy 1 μM | Regulatory efficacy 10 μM
1 | COC(=O)c1cccc(CN2CCn3c2nc(=O)c2c3C(F)(F)CN(Cc3cccc(C#N)c3)C2)c1 [Compound 51] | + + | + +
2 | N#Cc1cccc(CN2Cc3c(n4c(nc3=O)N(Cc3ccccc3)CC4)C(F)(F)C2)c1 [Compound 52, 3-((3-benzyl-9,9-difluoro-5-oxo-2,3,6,7,8,9-hexahydroimidazo[1,2-a]pyrido[3,4-e]pyrimidin-7(6H)-yl)methyl)benzonitrile] | + + | + +
3 | N#Cc1cccc(CN2Cc3c(n4c(nc3=O)N(Cc3cccc(F)c3)CC4)C(F)(F)C2)c1 [Compound 53, 3-((3-(3-fluorobenzyl)-9,9-difluoro-5-oxo-2,3,6,7,8,9-hexahydroimidazo[1,2-a]pyrido[3,4-e]pyrimidin-7(6H)-yl)methyl)benzonitrile] | + + | + +
4 | N#Cc1cccc(CN2Cc3c(n4c(nc3=O)N(Cc3ccc(F)c(Br)c3)CC4)C(F)(F)C2)c1 [Compound 54, 3-((3-(3-bromo-4-fluorobenzyl)-9,9-difluoro-5-oxo-2,3,6,7,8,9-hexahydroimidazo[1,2-a]pyrido[3,4-e]pyrimidin-7(6H)-yl)methyl)benzonitrile] | + + | + +
5 | CC(C)CCN1CCn2c1nc(=O)c1c2C(F)(F)CN(Cc2cccc(C#N)c2)C1 [Compound 55, 3-((9,9-difluoro-3-isopentyl-5-oxo-2,3,6,7,8,9-hexahydroimidazo[1,2-a]pyrido[3,4-e]pyrimidin-7(6H)-yl)methyl)benzonitrile] | + + | + +
6 | Cc1ccc(CN2CCn3c2nc(=O)c2c3C(F)(F)CN(Cc3cccc(C#N)c3)C2)cc1 [Compound 56, 3-((9,9-difluoro-3-(4-methylbenzyl)-5-oxo-2,3,6,7,8,9-hexahydroimidazo[1,2-a]pyrido[3,4-e]pyrimidin-7(6H)-yl)methyl)benzonitrile] | + + | + +
7 | N#Cc1cccc(CN2Cc3c(n4c(nc3=O)N(Cc3ccc(Cl)c(Cl)c3)CC4)C(F)(F)C2)c1 [Compound 57, 3-((9,9-difluoro-3-(3,4-dichlorobenzyl)-5-oxo-2,3,6,7,8,9-hexahydroimidazo[1,2-a]pyrido[3,4-e]pyrimidin-7(6H)-yl)methyl)benzonitrile] | + + | + +
8 | Cc1cccc(CN2CCn3c2nc(=O)c2c3C(F)(F)CN(Cc3cccc(C#N)c3)C2)c1 [Compound 58, 3-((9,9-difluoro-3-(3-methylbenzyl)-5-oxo-2,3,6,7,8,9-hexahydroimidazo[1,2-a]pyrido[3,4-e]pyrimidin-7(6H)-yl)methyl)benzonitrile] | + + | + +
9 | O=c1nc2n(c3c1CN(Cc1ccccc1)CC3)CCN2Cc1cccc(Br)c1 [Compound 59, 7-Benzyl-3-(3-bromobenzyl)-2,3,6,7,8,9-hexahydroimidazo[1,2-a]pyrido[3,4-e]pyrimidin-5(1H)-one] | + + | + +
10 | O=c1nc2n(c3c1CN(Cc1ccccc1)CC3)CCN2Cc1ccccc1Cl [Compound 61, 7-Benzyl-3-(2-chlorobenzyl)-2,3,6,7,8,9-hexahydroimidazo[1,2-a]pyrido[3,4-e]pyrimidin-5(1H)-one] | + + | + +
11 | O=c1nc2n(c3c1CN(Cc1ccccc1)CC3)CCN2Cc1ccccc1F [Compound 62, 7-Benzyl-3-(2-fluorobenzyl)-2,3,6,7,8,9-hexahydroimidazo[1,2-a]pyrido[3,4-e]pyrimidin-5(1H)-one] | + + | + +
12 | O=c1nc2n(c3c1CN(Cc1ccccc1)CC3)CCN2Cc1cccc(F)c1 [Compound 63, 7-Benzyl-3-(3-fluorobenzyl)-2,3,6,7,8,9-hexahydroimidazo[1,2-a]pyrido[3,4-e]pyrimidin-5(1H)-one] | + (+ indicating that the increased efficacy is less than 50% of the blank control group) | + +
13 | COc1cccc(CN2CCn3c2nc(=O)c2c3CCN(Cc3ccccc3)C2)c1 [Compound 64, 7-Benzyl-3-(3-methoxybenzyl)-2,3,6,7,8,9-hexahydroimidazo[1,2-a]pyrido[3,4-e]pyrimidin-5(1H)-one] | + + | + +
14 | CCN1CCn2c1nc(=O)c1c2C(F)(F)CN(Cc2ccccc2)C1 [Compound 65, 7-Benzyl-3-ethyl-9,9-difluoro-2,3,6,7,8,9-hexahydroimidazo[1,2-a]pyrido[3,4-e]pyrimidin-5(1H)-one] | + (+ indicating that the increased efficacy is less than 50% of the blank control group) | + +
15 | O=c1nc2n(c3c1CN(Cc1ccccc1)CC3(F)F)CCN2CC1CCCCC1 [Compound 66, 7-Benzyl-3-(cyclohexylmethyl)-9,9-difluoro-2,3,6,7,8,9-hexahydroimidazo[1,2-a]pyrido[3,4-e]pyri midin-5(1H)-one] | + + | + +
16 | O=c1nc2n(c3c1CN(Cc1ccccc1)CC3(F)F)CCN2c1ccccc1 [Compound 67, 7-Benzyl-9,9-difluoro-3-phenyl-2,3,6,7,8,9-hexahydroimidazo[1,2-a]pyrido[3,4-e]pyrimidin-5(1H)-one] | + + | + +
17 | O=c1nc2n(c3c1CN(Cc1ccccc1)CC3(F)F)CCN2Cc1ccccc1 [Compound 68, 3,7-Dibenzyl-9,9-difluoro-2,3,6,7,8,9-hexahydroimidazo[1,2-a]pyrido[3,4-e]pyrimidin-5(1H)-one] | + + | + +
18 | O=c1nc2n(c3c1CN(Cc1ccccc1)CC3(F)F)CCN2CCc1ccccc1 [Compound 69, 7-Benzyl-9,9-difluoro-3-phenylethyl-2,3,6,7,8,9-hexahydroimidazo[1,2-a]pyrido[3,4-e]pyrimidin-5(1H)-one] | + + | + +
19 | O=c1nc2n(c3c1CN(Cc1ccccc1)CC3(F)F)CCN2Cc1ccco1 [Compound 70, 7-Benzyl-9,9-difluoro-3-(furan-2-ylmethyl)-2,3,6,7,8,9-hexahydroimidazo [1,2-a]pyrido[3,4-e]pyrimidin-5(1H)-one] | + (+ indicating that the increased efficacy is less than 50% of the blank control group) | + +
20 | Cc1ccc(CN2CCn3c2nc(=O)c2c3C(F)(F)CN(Cc3ccccc3)C2)cc1 [Compound 72, 7-Benzyl-9,9-difluoro-3-(4-methylbenzyl)-2,3,6,7,8,9-hexahydroimidazo[1,2-a]pyrido[3,4-e]pyrimid in-5(1H)-one] | + + | + +
21 | O=c1nc2n(c3c1CN(Cc1ccccc1)CC3(F)F)CCN2Cc1ccc(C(F)(F)F)cc1 [Compound 73, 7-Benzyl-9,9-difluoro-3-(4-(trifluoromethyl)benzyl)-2,3,6,7,8,9-hexahydroimidazo[1,2-a]pyrido[3,4-e]pyrimidin-5(1H)-one] | + + | + +
22 | COc1ccccc1CN1CCn2c1nc(=O)c1c2C(F)(F)CN(Cc2ccccc2)C1 [Compound 74, 7-Benzyl-9,9-difluoro-3-(2-methoxybenzyl)-2,3,6,7,8,9-hexahydroimidazo[1,2-a]pyrido[3,4-e]pyrimidin-5(1H)-one] | + + | + +
23 | CS(=O)(=O)c1ccc(CN2CCn3c2nc(=O)c2c3C(F)(F)CN(Cc3ccccc3)C2)cc1 [Compound 75, 7-Benzyl-9,9-difluoro-3-(4-(methylsulfonyl)benzyl)-2,3,6,7,8,9-hexahydroimidazo[1,2-a]pyrido[3,4-e]pyrimidin-5(1H)-one] | + + | + +
24 | O=c1nc2n(c3c1CN(Cc1ccccc1)CC3(F)F)CCN2Cc1ccc(Cl)cc1 [Compound 77, 7-Benzyl-3-(4-chlorobenzyl)-9,9-difluoro-2,3,6,7,8,9-hexahydroimidazo[1,2-a]pyrido[3,4-e]pyrimidi n-5(1H)-one] | + + | + +
25 | O=c1nc2n(c3c1CN(Cc1ccccc1)CC3(F)F)CCN2Cc1ccc(Br)cc1 [Compound 78, 7-Benzyl-3-(4-bromobenzyl)-9,9-difluoro-2,3,6,7,8,9-hexahydroimidazo[1,2-a]pyrido[3,4-e]pyrimidin-5(1H)-one] | + + | + +
26 | O=c1nc2n(c3c1CN(Cc1ccccc1)CC3(F)F)CCN2Cc1ccc(Cl)c(Cl)c1 [Compound 79, 7-Benzyl-3-(3,4-dichlorobenzyl)-9,9-difluoro-2,3,6,7,8,9-hexahydroimidazo[1,2-a]pyrido[3,4-e]pyrimidin-5(1H)-one] | + + | + +
27 | O=c1nc2n(c3c1CN(Cc1ccccc1)CC3(F)F)CCN2Cc1ccc(F)c(F)c1 [Compound 80, 7-Benzyl-3-(3,4-difluorobenzyl)-9,9-difluoro-2,3,6,7,8,9-hexahydroimidazo[1,2-a]pyrido[3,4-e]pyrimidin-5(1H)-one] | + + | + +
28 | O=c1nc2n(c3c1CN(Cc1ccccc1)CC3(F)F)CCN2Cc1ccc(F)cc1F [Compound 81, 7-Benzyl-3-(2,4-difluorobenzyl)-9,9-difluoro-2,3,6,7,8,9-hexahydroimidazo[1,2-a]pyrido[3,4-e]pyrimidin-5(1H)-one] | + + | + +
